Experiments:
[1] = in vivo; cited from earlier work
[2] = In vitro drug release testing of fibres in Green's cell culture medium (HPLC); format: physicochemical; conditions: 1.2x1.2 cm samples in 5 mL Green's cell culture medium, 37° C., 30, 60 and 120 minutes
Procedure: Compositions: Same as in example 4.
Composition of Green's cell culture medium - Dulbecco's Modified Eagle's Medium: Ham's F12 medium in a 3:1 (v/v) ratio supplemented with 10% (v/v) FCS • 0.1 μM cholera toxin • 10 ng/ml of epidermal growth factor (EGF) • 0.4 μg/ml hydrocortisone • 0.18 mM adenine • 5 μg/ml insulin • 5 μg/ml transferrin • 2 mM glutamine • 0.2 μM triiodothyronine • 0.625 μg/ml amphotericin B • 100 IU/ml penicillin • 100 μg/ml streptomycin
Method of Analysis: • Samples of dimensions 1.2×1.2 cm were cut from each fibre composition and were placed in vials containing 5 mL of Green's cell culture medium. • All vials were incubated at 37° C. for 30, 60 and 120 minutes. • At those time points, 1.5 mL of cell culture media were removed from each vial • The concentration of clobetasol propionate released from the fibres was measured using high-performance liquid chromatography (HPLC).

[3] = in vivo; cited from earlier work; remark: listed apart in the source

C/C=C(/C)C(=O)O[C@H]1C(C)=C[C@]23C(=O)[C@@H](C=C(CO)[C@@H](O)[C@]12O)[C@H]1[C@@H](C[C@H]3C)C1(C)C [Ingenol mebutate]
Absorption through the skin [1]: practically not absorbed through the skin

CCC(=O)O[C@]1(C(=O)CCl)[C@@H](C)C[C@H]2[C@@H]3CCC4=CC(=O)C=C[C@]4(C)[C@@]3(F)[C@@H](O)C[C@@]21C [clobetasol propionate]
Release of clobetasol propionate from electrospun fibres [2]: released after immersion in cell culture media

C[C@]12CCC(=O)C=C1CC[C@@H]1[C@@H]2[C@@H](O)C[C@@]2(C)[C@H]1CC[C@]2(O)C(=O)CO [Hydrocortisone]
Absorption from the gut [3]: no significant absorption from the gut
